# Paper PMC5697638, “Identification of a Potent Phosphoinositide 3‐Kinase Pan Inhibitor Displaying a Strategic Carboxylic Acid Group and Development of Its Prodrugs” (Chemmedchem, 2017)
# Where two headings read alike, the source gives them in different places.
# How the values were obtained:
# Assay type in all cases: biochemical
# [1] = biological target: T1, human PI3Kα (PIK3CA/PIK3R1) (Homo sapiens, UniProt P42336); test: lipid kinase assay (ADP-Glo), PI3Kα; settings: for IC50: mean of at least three determinations, 95 % confidence intervals; for inhibition at 1 µM: determined at 1 μM, at least triplicate, read-out: Inhibitory activity, PI3K isoform α
# T1 construct: purchased ProQinase, Germany 1161‐1165‐1
# Description: (§1) In vitro selection, lipid kinase assay: To determine the inhibitory activity of the new molecular entities on PI3K enzyme, a lipid kinase assay was performed: recombinant proteins (30 ng), human PI3Kα (PIK3CA/PIK3R1, #1161‐1165‐1 ProQinase–Germany), hPI3Kβ (PIK3CB wt/PIK3R1, #1168‐1165‐1 ProQinase, Germany), hPI3Kγ (PIK3CG, #1163‐0000‐1 ProQinase, Germany), hPI3Kδ (PIK3CD/PIK3R1, #1162–1165‐1 ProQinase, Germany), hPI3K‐C2α (PIK3C2A, #14‐906 Merck Millipore_Merck KGaA, Germany), hPI3K‐C2β (PIK3C2B, #14‐907 Merck Millipore_Merck KGaA, Germany), hPI3K‐c2γ (PIK3C2G, #1207‐0000‐1 ProQinase, Germany), and hVps34 (PIK3C3, #1160‐0000‐1 ProQinase, Germany), were incubated in kinase buffer {12.5 μL; 20 mM Tris‐HCl pH 7.5, 10 mM MgCl2, 10 μM ATP, 0.05 mg mL^−1 BSA, 0.5 mM EDTA, 5 mM HEPES pH 7.5, for PI3Kα,PI3Kβ, PI3Kγ, PI3Kδ, PI3KC‐2α, and PI3KC‐2γ; 15 mM MnCl2, 5 mM EGTA, 100 μM ATP, 50 mM HEPES pH 7.5, 100 mM NaCl, and 0.03 % CHAPS for PI3K‐C2β and VPS34 {BSA=bovine serum albumin; EDTA=ethylenediaminetetraacetic acid; HEPES=4‐(2‐hydroxyethyl)‐1‐piperazineethanesulfonic acid; EGTA=ethylene glycol‐bis(2‐aminoethylether)‐N,N,N′,N′‐tetraacetic acid; CHAPS=3‐[(3‐cholamidopropyl)dimethylammonio]‐1‐propanesulfonate}. In the reaction, the ATP concentration used for different PI3Ks was defined on the basis of the Michaelis–Menten kinetics of each enzyme, provided by the supplier. Reaction was performed in presence of 0.5 mg mL^−1 lipid micelles (1:1 phosphatidylinositol/phosphatidylserine) and in the absence (DMSO alone) or presence of increasing concentrations of each compound (from 0.1 nM to 30 μM). The mixture was kept at room temperature (RT) for 30 min for PI3Kα, PI3Kβ, PI3Kγ, PI3Kδ, PI3KC‐2α, and PI3KC‐2γ and for 1 h for PI3K‐C2β and PI3K‐C3. The amount of ADP produced in the reaction was measured by using the ADP‐Glo Kinase Assay kit from Promega (#V9102) and a luminescence reader (Glomax multi detection system, Promega, model number 9301‐010).
# (§2) The residual PI3K lipid kinase activity in the presence of each molecule at different concentrations was related to the control, intended as the recombinant protein in the presence of DMSO alone and was expressed as a percentage. To derive the IC50 value, all data (% of lipid kinase activity) were plotted on a dose–response curve (Graph Pad software), and the IC50 was calculated by using nonlinear regression fit (equation [log agonist] versus response).
# [2] = biological target: T2, hPI3Kβ (PIK3CB wt/PIK3R1) (Homo sapiens, UniProt P42338); test: lipid kinase assay (ADP-Glo), PI3Kβ; settings: for IC50: Table 2, mean of at least three determinations, 95 % confidence intervals; for inhibition at 1 µM: determined at 1 μM, at least triplicate, read-out: Inhibitory activity, PI3K isoform β
# T2 construct: purchased ProQinase, Germany 1168‐1165‐1
# Description: as §1, §2
# [3] = biological target: T3, hPI3Kγ (PIK3CG) (Homo sapiens, UniProt P48736); test: lipid kinase assay (ADP-Glo), PI3Kγ; settings: for IC50: Table 2, mean of at least three determinations, 95 % confidence intervals; for inhibition at 1 µM: determined at 1 μM, at least triplicate, read-out: Inhibitory activity, PI3K isoform γ
# T3 construct: purchased ProQinase, Germany 1163‐0000‐1
# Description: as §1, §2
# [4] = biological target: T4, hPI3Kδ (PIK3CD/PIK3R1) (Homo sapiens, UniProt O00329); test: lipid kinase assay (ADP-Glo), PI3Kδ; settings: for IC50: Table 2, mean of at least three determinations, 95 % confidence intervals; for inhibition at 1 µM: determined at 1 μM, at least triplicate, read-out: Inhibitory activity, PI3K isoform δ
# T4 construct: purchased ProQinase, Germany 1162–1165‐1
# Description: as §1, §2
# [5] = Table 3, analogues of 37, read-out: IC50 against PI3Kα
# T1 sequence (P42336 whole entry, canonical isoform): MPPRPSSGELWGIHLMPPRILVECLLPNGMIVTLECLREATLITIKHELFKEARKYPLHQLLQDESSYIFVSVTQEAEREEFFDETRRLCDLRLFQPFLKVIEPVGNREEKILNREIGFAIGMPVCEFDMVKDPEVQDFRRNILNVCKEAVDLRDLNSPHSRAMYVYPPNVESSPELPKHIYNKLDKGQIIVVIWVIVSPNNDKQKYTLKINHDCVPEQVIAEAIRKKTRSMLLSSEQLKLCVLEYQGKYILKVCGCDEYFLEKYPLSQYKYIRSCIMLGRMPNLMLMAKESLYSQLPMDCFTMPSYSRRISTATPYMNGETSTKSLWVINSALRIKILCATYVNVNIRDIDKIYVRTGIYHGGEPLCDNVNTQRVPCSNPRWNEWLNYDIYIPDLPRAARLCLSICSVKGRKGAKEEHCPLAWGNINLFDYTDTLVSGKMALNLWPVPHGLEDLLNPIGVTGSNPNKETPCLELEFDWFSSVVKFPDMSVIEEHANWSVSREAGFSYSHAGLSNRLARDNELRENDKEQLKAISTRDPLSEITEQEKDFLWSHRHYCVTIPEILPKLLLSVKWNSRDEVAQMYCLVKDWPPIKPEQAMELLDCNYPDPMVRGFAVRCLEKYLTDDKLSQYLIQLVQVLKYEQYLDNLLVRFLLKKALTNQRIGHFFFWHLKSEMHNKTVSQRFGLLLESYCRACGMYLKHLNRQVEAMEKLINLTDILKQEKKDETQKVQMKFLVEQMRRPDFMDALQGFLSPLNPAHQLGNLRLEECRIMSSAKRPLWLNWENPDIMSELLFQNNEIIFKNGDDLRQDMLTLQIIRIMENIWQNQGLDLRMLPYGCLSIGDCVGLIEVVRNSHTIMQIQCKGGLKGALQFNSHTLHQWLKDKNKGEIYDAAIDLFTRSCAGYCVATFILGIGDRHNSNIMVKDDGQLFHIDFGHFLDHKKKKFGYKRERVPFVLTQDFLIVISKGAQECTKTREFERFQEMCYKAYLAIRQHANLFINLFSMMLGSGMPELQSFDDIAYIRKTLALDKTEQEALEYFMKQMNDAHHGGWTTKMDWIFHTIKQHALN
# T1 sequence (P27986 whole entry partner, canonical isoform): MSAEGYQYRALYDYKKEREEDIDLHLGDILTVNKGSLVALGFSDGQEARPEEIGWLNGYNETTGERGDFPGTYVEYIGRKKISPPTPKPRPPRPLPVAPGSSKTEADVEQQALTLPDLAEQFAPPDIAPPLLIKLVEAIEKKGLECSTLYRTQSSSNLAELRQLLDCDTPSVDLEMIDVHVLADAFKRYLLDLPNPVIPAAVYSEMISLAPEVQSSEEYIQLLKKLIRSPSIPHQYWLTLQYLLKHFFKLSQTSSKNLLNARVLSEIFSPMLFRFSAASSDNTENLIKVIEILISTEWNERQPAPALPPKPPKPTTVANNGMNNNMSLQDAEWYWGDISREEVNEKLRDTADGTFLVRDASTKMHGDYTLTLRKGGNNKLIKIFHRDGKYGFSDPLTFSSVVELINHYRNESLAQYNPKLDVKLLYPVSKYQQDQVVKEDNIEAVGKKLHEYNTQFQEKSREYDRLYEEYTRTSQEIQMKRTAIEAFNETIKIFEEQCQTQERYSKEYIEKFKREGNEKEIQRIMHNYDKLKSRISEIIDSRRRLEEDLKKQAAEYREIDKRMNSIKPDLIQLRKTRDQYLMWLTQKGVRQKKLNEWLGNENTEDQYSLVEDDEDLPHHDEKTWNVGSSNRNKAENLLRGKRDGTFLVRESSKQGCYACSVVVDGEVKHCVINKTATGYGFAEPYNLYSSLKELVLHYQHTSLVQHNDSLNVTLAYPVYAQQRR
# T2 sequence (P42338 whole entry, canonical isoform): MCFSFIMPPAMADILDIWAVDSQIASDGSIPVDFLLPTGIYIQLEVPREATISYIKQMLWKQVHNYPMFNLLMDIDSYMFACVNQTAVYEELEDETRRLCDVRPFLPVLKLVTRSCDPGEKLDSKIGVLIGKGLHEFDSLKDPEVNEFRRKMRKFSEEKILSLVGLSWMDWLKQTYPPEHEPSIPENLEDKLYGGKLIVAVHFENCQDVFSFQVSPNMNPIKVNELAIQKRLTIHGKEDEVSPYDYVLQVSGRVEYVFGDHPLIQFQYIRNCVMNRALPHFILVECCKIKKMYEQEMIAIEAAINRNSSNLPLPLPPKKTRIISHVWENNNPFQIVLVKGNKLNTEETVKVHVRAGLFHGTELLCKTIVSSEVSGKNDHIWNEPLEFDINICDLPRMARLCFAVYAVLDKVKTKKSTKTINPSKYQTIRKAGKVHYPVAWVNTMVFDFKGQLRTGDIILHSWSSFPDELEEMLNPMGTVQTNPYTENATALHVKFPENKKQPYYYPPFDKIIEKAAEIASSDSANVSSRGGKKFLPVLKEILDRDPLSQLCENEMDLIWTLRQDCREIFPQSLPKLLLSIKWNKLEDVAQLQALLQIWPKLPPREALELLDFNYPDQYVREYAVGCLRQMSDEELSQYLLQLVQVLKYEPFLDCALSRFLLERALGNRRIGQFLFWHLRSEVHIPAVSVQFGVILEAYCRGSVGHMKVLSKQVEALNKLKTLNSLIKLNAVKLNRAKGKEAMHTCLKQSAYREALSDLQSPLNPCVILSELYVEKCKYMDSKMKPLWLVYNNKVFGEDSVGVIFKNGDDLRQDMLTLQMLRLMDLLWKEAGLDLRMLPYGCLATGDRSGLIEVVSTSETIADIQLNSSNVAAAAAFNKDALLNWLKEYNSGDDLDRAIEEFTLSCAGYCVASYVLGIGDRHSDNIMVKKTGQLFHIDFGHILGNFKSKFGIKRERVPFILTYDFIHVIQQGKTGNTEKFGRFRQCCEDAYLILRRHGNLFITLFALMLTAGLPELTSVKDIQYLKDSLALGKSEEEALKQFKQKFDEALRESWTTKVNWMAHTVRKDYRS
# T2 sequence (P27986 whole entry partner, canonical isoform): as the sequence (P27986 whole entry partner, canonical isoform) above
# T4 sequence (O00329 whole entry, canonical isoform): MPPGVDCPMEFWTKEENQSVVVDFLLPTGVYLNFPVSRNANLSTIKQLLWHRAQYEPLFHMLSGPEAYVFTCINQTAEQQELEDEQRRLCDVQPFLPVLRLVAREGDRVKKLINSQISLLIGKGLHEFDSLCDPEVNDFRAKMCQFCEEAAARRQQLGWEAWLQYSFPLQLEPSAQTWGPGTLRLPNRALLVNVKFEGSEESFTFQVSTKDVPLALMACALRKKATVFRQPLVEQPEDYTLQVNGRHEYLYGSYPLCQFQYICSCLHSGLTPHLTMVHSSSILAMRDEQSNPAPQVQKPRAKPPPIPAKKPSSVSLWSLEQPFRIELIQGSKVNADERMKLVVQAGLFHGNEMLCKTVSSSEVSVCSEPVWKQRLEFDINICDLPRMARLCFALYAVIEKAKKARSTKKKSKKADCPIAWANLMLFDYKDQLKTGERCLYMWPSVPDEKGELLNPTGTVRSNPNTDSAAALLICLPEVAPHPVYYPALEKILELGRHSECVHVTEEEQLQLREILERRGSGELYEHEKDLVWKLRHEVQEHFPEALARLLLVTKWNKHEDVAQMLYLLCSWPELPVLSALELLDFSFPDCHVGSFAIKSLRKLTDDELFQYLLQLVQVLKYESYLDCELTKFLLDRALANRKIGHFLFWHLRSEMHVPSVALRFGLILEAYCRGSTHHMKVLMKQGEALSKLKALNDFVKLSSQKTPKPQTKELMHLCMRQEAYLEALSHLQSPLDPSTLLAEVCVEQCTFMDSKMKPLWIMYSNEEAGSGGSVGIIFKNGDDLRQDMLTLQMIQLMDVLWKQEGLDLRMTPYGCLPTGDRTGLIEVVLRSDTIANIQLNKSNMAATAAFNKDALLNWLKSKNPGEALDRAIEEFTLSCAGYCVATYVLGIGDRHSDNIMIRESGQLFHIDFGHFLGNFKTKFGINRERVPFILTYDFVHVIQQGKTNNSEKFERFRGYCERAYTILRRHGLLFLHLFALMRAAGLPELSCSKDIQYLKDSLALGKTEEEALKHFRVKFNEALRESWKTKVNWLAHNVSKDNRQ
# T4 sequence (P27986 whole entry partner, canonical isoform): as the sequence (P27986 whole entry partner, canonical isoform) above
# T3 sequence (P48736 whole entry, canonical isoform): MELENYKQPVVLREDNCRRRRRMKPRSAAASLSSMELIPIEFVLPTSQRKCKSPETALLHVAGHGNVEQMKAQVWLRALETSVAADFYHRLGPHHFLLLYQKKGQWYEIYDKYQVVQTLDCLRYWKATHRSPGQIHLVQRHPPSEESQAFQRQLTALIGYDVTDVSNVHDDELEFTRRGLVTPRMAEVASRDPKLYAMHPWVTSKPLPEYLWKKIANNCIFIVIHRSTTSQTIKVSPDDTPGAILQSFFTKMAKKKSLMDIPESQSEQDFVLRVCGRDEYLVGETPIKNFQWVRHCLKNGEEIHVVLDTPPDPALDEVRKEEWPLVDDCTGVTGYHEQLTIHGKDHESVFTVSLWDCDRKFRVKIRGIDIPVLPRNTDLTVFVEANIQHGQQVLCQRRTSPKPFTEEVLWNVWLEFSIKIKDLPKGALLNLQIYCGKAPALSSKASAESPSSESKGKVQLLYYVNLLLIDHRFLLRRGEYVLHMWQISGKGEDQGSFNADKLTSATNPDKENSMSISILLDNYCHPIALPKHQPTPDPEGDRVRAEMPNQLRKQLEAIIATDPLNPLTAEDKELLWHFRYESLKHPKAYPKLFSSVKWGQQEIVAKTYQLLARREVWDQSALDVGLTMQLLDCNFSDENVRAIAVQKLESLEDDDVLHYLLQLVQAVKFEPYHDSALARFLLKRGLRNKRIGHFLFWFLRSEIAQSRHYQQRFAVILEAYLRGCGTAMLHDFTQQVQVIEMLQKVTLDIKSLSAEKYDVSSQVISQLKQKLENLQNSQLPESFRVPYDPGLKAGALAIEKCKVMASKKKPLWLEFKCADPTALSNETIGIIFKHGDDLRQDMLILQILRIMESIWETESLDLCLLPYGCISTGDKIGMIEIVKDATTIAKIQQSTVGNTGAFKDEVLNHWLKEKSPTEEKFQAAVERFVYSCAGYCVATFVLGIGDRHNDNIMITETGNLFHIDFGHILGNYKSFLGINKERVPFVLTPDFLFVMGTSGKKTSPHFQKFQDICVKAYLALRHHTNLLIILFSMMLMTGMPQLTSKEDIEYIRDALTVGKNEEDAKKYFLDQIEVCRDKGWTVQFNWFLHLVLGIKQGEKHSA
SMILES,inhibition at 1 µM [1],inhibition at 1 µM [2],inhibition at 1 µM [3],inhibition at 1 µM [4],"IC50 [1, 5]",other results
"O=c1cc(N2CCOCC2)[nH]c2c(-c3cn(-c4ccccc4)nn3)cccc12 [Compound 25, 2‐Morpholino‐8‐(1‐phenyl‐1H‐1,2,3‐triazol‐4‐yl)quinolin‐4(1H)‐one]",> 50%,< 50%,< 50%,> 50%,–,"IC50 ([1]; Table 2, read-out: IC50 PI3Kα): 0.74 ± 0.31 µM; IC50 [2]: 5.5 ± 2.5 µM; IC50 [3]: 3 ± 1 µM; IC50 [4]: 0.61 ± 0.27 µM"
"O=c1cc(N2CCOCC2)[nH]c2c(-c3cn(-c4cccc(O)c4)nn3)cccc12 [Compound 26, 8‐[1‐(3‐Hydroxyphenyl)‐1H‐1,2,3‐triazol‐4‐yl]‐2‐morpholinoquinolin‐4(1H)‐one]",< 50%,< 50%,< 50%,< 50%,–,–
"COc1ccc(-n2cc(-c3cccc4c(=O)cc(N5CCOCC5)[nH]c34)nn2)cc1O [Compound 27, 8‐[1‐(3‐Hydroxy‐4‐methoxyphenyl)‐1H‐1,2,3‐triazol‐4‐yl]‐2‐morpholinoquinolin‐4(1H)‐one]",< 50%,< 50%,< 50%,< 50%,–,–
"O=c1cc(N2CCOCC2)[nH]c2c(-c3cn(-c4ccc(Cl)cc4)nn3)cccc12 [Compound 28, 8‐[1‐(4‐Chlorophenyl)‐1H‐1,2,3‐triazol‐4‐yl]‐2‐morpholinoquinolin‐4(1H)‐one]",< 50%,< 50%,< 50%,< 50%,–,–
"O=c1cc(N2CCOCC2)[nH]c2c(-c3cn(-c4ccc(OC(F)(F)F)cc4)nn3)cccc12 [Compound 29, 2‐Morpholino‐8‐{1‐[4‐(trifluoromethoxy)phenyl]‐1H‐1,2,3‐triazol‐4‐yl}quinolin‐4(1H)‐one]",< 50%,< 50%,< 50%,< 50%,–,–
"COc1ccc(-n2cc(-c3cccc4c(=O)cc(N5CCOCC5)[nH]c34)nn2)cc1[N+](=O)[O-] [Compound 30, 8‐[1‐(4‐Methoxy‐3‐nitrophenyl)‐1H‐1,2,3‐triazol‐4‐yl]‐2‐morpholinoquinolin‐4(1H)‐one]",< 50%,< 50%,< 50%,< 50%,–,–
"COC(=O)c1ccc(Cn2cc(-c3cccc4c(=O)cc(N5CCOCC5)[nH]c34)nn2)cc1 [Compound 31, Methyl‐4‐{[4‐(2‐morpholino‐4‐oxo‐1,4‐dihydroquinolin‐8‐yl)‐1H‐1,2,3‐triazol‐1‐yl]methyl}benzoate]",< 50%,< 50%,< 50%,< 50%,–,–
"Nc1ccc(-n2cc(-c3cccc4c(=O)cc(N5CCOCC5)[nH]c34)nn2)cc1 [Compound 32, 8‐[1‐(4‐Aminophenyl)‐1H‐1,2,3‐triazol‐4‐yl]‐2‐morpholinoquinolin‐4(1H)‐one]",< 50%,< 50%,< 50%,< 50%,–,–
"N#CCc1ccc(-n2cc(-c3cccc4c(=O)cc(N5CCOCC5)[nH]c34)nn2)cc1 [Compound 33, 2‐{4‐[4‐(2‐Morpholino‐4‐oxo‐1,4‐dihydroquinolin‐8‐yl)‐1H‐1,2,3‐triazol‐1‐yl]phenyl} acetonitrile]",< 50%,< 50%,< 50%,< 50%,–,–
"O=c1cc(N2CCOCC2)[nH]c2c(-c3cn(-c4ccc5ccccc5c4)nn3)cccc12 [Compound 34, 2‐Morpholino‐8‐[1‐(naphthalen‐2‐yl)‐1H‐1,2,3‐triazol‐4‐yl]quinolin‐4(1H)‐one]",< 50%,< 50%,< 50%,< 50%,–,–
"COc1cccc(-n2cc(-c3cccc4c(=O)cc(N5CCOCC5)[nH]c34)nn2)c1 [Compound 35, 8‐[1‐(3‐Methoxyphenyl)‐1H‐1,2,3‐triazol‐4‐yl]‐2‐morpholinoquinolin‐4(1H)‐one]",< 50%,< 50%,< 50%,> 50%,–,"IC50 ([1]; Table 2, read-out: IC50 PI3Kα): 1.3 ± 0.7 µM; IC50 [2]: 9.3 ± 5.8 µM; IC50 [3]: 4.2 ± 2.1 µM; IC50 [4]: 0.81 ± 0.36 µM"
"O=c1cc(N2CCOCC2)[nH]c2c(-c3cn(-c4cnc5ccccc5c4)nn3)cccc12 [Compound 36, 2‐Morpholino‐8‐[1‐(quinolin‐3‐yl)‐1H‐1,2,3‐triazol‐4‐yl]quinolin‐4(1H)‐one]",< 50%,< 50%,< 50%,< 50%,–,–
"COc1ccc(NC(C)=O)cc1-n1cc(-c2cccc3c(=O)cc(N4CCOCC4)[nH]c23)nn1 [Compound 38, N ‐{4‐Methoxy‐3‐[4‐(2‐morpholino‐4‐oxo‐1,4‐dihydroquinolin‐8‐yl)‐1H‐1,2,3‐triazol‐1‐yl]phenyl}acetamide]",< 50%,< 50%,< 50%,< 50%,–,–
"O=C(O)CCCn1cc(-c2cccc3c(=O)cc(N4CCOCC4)[nH]c23)nn1 [Compound 55, 4‐[4‐(2‐Morpholino‐4‐oxo‐1,4‐dihydroquinolin‐8‐yl)‐1H‐1,2,3‐triazol‐1‐yl]butanoic acid]",–,–,–,–,> 1 µM,–
"O=C(O)CCCCn1cc(-c2cccc3c(=O)cc(N4CCOCC4)[nH]c23)nn1 [Compound 56, 5‐[4‐(2‐Morpholino‐4‐oxo‐1,4‐dihydroquinolin‐8‐yl)‐1H‐1,2,3‐triazol‐1‐yl]pentanoic acid]",–,–,–,–,> 1 µM,–

# Now from value to compound, other results behind:
inhibition at 1 µM [1],inhibition at 1 µM [2],inhibition at 1 µM [3],inhibition at 1 µM [4],"IC50 [1, 5]",SMILES,other results
–,–,–,–,> 1 µM,O=C(O)CCCCCn1cc(-c2cccc3c(=O)cc(N4CCOCC4)[nH]c23)nn1 [Compound 57],–
–,–,–,–,> 1 µM,"CS(=O)(=O)NC(=O)c1cccc(Cn2cc(-c3cccc4c(=O)cc(N5CCOCC5)[nH]c34)nn2)c1 [Compound 58, N ‐(Methylsulfonyl)‐3‐{[4‐(2‐morpholino‐4‐oxo‐1,4‐dihydroquinolin‐8‐yl)‐1H‐1,2,3‐triazol‐1‐yl]methyl}benzamide]",–
–,–,–,–,0.8 ± 0.74 µM,"NC(=O)c1cccc(Cn2cc(-c3cccc4c(=O)cc(N5CCOCC5)[nH]c34)nn2)c1 [Compound 59, 3‐{[4‐(2‐Morpholino‐4‐oxo‐1,4‐dihydroquinolin‐8‐yl)‐1H‐1,2,3‐triazol‐1‐yl]methyl}benzamide]",–
–,–,–,–,0.14 ± 0.09 µM,"O=C(NCc1ccccc1)c1cccc(Cn2cc(-c3cccc4c(=O)cc(N5CCOCC5)[nH]c34)nn2)c1 [Compound 60, N ‐Benzyl‐3‐{[4‐(2‐morpholino‐4‐oxo‐1,4‐dihydroquinolin‐8‐yl)‐1H‐1,2,3‐triazol‐1‐yl]methyl}benzamide]",–
–,–,–,–,0.25 ± 0.08 µM,"O=C(NC1CC1)c1cccc(Cn2cc(-c3cccc4c(=O)cc(N5CCOCC5)[nH]c34)nn2)c1 [Compound 61, N ‐Cyclopropyl‐3‐{[4‐(2‐morpholino‐4‐oxo‐1,4‐dihydroquinolin‐8‐yl)‐1H‐1,2,3‐triazol‐1‐yl]methyl}benzamide]",–
–,–,–,–,0.29 ± 0.08 µM,"CCN(CC)C(=O)c1cccc(Cn2cc(-c3cccc4c(=O)cc(N5CCOCC5)[nH]c34)nn2)c1 [Compound 62, N,N ‐Diethyl‐3‐{[4‐(2‐morpholino‐4‐oxo‐1,4‐dihydroquinolin‐8‐yl)‐1H‐1,2,3‐triazol‐1‐yl]methyl}benzamide]",–
–,–,–,–,> 1 µM,"O=c1cc(N2CCOCC2)[nH]c2c(-c3cn(Cc4cccc(-c5nnn[nH]5)c4)nn3)cccc12 [Compound 63, 8‐{1‐[3‐(1H‐Tetrazol‐5‐yl)benzyl]‐1H‐1,2,3‐triazol‐4‐yl}‐2‐morpholinoquinolin‐4(1H)‐one]",–
